Here are results for 2 molecules from patent publication US11691951B2 (Curtana Pharmaceuticals, Inc., priority 2015, dated 2023).

SMILES strings stand for the structures. Some results are limits rather than exact numbers.

Assay [1] concerns GBM8 cells (human glioblastoma neurosphere cell culture). The assay is described as follows: GBM8 viability assay (Cell Titer Glo luminescence, 3 days). The format is cell-based. The settings on record: 72 h, 3 days incubation. In a few lines:
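Patient-derived neurosphere cells (4000/well) in NeuroCult medium with rh EGF, rh bFGF and heparin, ultra-low attachment, dosed after overnight settling; 3 days at 37 °C. CellTiter-Glo luminescence versus DMSO controls gave % growth inhibition; IC50 from 4-parameter fit of serial dilutions.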
For orientation: Cellular ATP, detected with luciferase, serves as a proxy for viable cell number.

In assay [2] the test system is GBM4 cells (human glioblastoma neurosphere cell culture). The assay can be described thus: GBM4 viability assay (Cell Titer Glo luminescence, 3 days). The format is cell-based. The settings on record: 72 h, 3 days incubation. As to the method: Example 283: GBM4 and GBM8 Viability Assay
Cell culture medium was prepared from a NSA proliferation kit (Neurocult) and NeuroCult supplements (Stemcell Tech Cat. #05751) and treated with 20 μL of 10 μg/mL rh EGF, 10 μL of 10 μg/mL rh bFGF and 10 μL of 0.2% Heparin. In this medium, human glioblastoma cells were cultured in ultra-low attachment tissue culture flasks until 1×10^6 cells ml was achieved (GBM4 and GBM8 are distinct neurosphere cell cultures derived from these human patient tissues). GBM4 and GBM8 cells were dissociated and 10 mL of media containing 4000 human glioblastoma cells per 90 uL were transferred to an ultra-low binding 96-well plate and incubated at 37° C. overnight. On the following day, 10 μL of a 1% DMSO solution of test compound in assay medium was added to wells containing the cell suspension and the mixture incubated at 37° C. for 3 days. At this time, the plate was removed from the incubator and allowed to reach room temperature. After about 30 minutes, 50 μL of Cell Titer Glo solution was added to each well and the plate shaken for 1 minute at low speed. After 10 minutes luminescence was recorded using a Tecan Safire2 reader.
Reduction in luminescence compared to DMSO only control wells was used to determine the percentage inhibition of cell growth. IC50s were calculated using the % inhibition of luminescence for serial dilutions of compounds fitted to a 4-parameter fit within the Prism (San Diego) curve fitting program.

With `Cc1cc(NCCCN(C)C)nc(NC(=O)Nc2ccc(Cl)c(Cl)c2)n1` [Compound 8, 1-{2-[3-(3,4-Dichlorophenyl)ureido]-6-methyl-pyrimidin-4-yl}-amino-3-(dimethylamino)propane], the half-maximal inhibitory concentration (IC50) in assay [1] and in assay [2] was less than 1000 nM each time.

Turning to `Cc1cc(Nc2ccncc2)nc(NC(=O)Nc2ccc(Cl)c(Cl)c2)n1` [Compound 39, 2-[3-(3,4-dichlorophenyl)ureido]-6-methyl-4-(4-pyridylamino)-pyrimidine], the half-maximal inhibitory concentration (IC50) in assay [1] and in assay [2] was 1000 to 10000 nM each time.
